17 compounds from ChEMBL document CHEMBL1136367, “Design and synthesis of novel benzofurans as a new class of antifungal agents targeting fungal N-myristoyltransferase. Part 3” (Bioorg Med Chem Lett, 2003) can be followed below.

SMILES strings stand for the structures. Some results are limits rather than exact numbers.

Data set [1] in a line: Pharmacokinetic property when administered intravenously in rat at 2 mg/kg. Type of data set: ADME, organism-based. Also on record: dose 2 mg/kg, route intravenous. As to conditions: in vivo, iv.
A short description of data set [2]: Half life period was evaluated in rat plasma. Type of data set: ADME, organism-based.
In data set [3] the test system is Candida albicans. Description: In vitro antifungal activity against Candida albicans (CY1002) in 80% calf serum. It is filed as functional, organism-based.
Data set [4] has as its system Candida albicans. Kind of data set: In vitro antifungal activity against Candida albicans (CY1002) in YNBPB medium. Type of data set: functional, organism-based.
Data set [5] concerns the target T1, Peptide N-myristoyltransferase (Homo sapiens, UniProt P30419+O60551).
T1 sequence (P30419 whole entry): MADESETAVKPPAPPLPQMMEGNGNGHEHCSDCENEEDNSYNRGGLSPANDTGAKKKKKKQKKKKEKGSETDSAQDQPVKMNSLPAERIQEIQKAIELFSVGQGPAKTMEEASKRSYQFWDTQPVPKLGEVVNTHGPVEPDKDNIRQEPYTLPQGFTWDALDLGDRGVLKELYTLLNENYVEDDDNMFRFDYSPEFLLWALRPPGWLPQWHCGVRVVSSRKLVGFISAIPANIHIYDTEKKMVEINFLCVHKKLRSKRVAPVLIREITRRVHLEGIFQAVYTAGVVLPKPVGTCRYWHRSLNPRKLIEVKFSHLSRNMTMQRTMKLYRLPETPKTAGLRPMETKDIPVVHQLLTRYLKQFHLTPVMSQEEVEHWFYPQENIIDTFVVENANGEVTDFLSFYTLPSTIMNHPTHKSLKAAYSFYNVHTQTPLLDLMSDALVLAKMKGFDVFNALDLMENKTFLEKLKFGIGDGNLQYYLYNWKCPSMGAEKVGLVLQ
T1 sequence (O60551 whole entry): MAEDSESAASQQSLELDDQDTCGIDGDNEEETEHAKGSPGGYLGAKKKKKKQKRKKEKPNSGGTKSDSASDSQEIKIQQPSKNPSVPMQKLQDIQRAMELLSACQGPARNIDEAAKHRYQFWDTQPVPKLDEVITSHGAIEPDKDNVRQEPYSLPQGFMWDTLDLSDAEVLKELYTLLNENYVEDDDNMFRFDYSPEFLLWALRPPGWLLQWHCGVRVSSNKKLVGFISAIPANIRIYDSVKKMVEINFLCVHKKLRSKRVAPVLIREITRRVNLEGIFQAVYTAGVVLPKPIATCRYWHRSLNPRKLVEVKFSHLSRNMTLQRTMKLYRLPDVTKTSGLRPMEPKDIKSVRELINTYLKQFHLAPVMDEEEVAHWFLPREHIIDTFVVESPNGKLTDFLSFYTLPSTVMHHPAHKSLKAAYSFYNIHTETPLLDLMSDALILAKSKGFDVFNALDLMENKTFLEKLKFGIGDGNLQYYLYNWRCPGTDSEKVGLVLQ
Description: In vitro inhibitory activity against human Nmt (HsNmt) using 0.5 uM peptide GNAASAR-R-NH2 and 0.5 uM myristoyl-CoA. Type of data set: protein assay.

Data set [6] addresses Peptide N-myristoyltransferase (Candida albicans). Description: In vitro inhibitory activity against Candida albicans Nmt (CaNmt) using substrate peptide GLTISKLFR-R-NH2 (0.5 uM) and myristoyl-CoA (0.5 uM).
In data set [7] the target is Peptide N-myristoyltransferase (Aspergillus fumigatus). Kind of data set: In vitro inhibitory activity against Aspergillus fumigatus Nmt (AfNmt) using substrate peptide GLTISKLFR-R-NH2 (0.5 uM) and myristoyl-CoA (0.5 uM).
Data set [8] concerns the target Peptide N-myristoyltransferase (Candida albicans). Description: Inhibitory activity against Candida albicans Nmt (CaNmt) using substrate peptide GLTISKLFR-R-NH2 (0.5 uM) and myristoyl-CoA (0.5 uM).
In another data set the test system is Mus musculus. Description: In vivo efficacy expressed as effective dose against murine systematic candidiasis model. It is filed as functional.
Data set [9] has as its target Peptide N-myristoyltransferase (Candida albicans). Kind of data set: In vitro inhibitory activity against Candida albicans Nmt (CaNmt) using substrate peptide GLTISKLFR-R-NH2 (0.5 uM) and myristoyl-CoA (0.5 uM). The source holds these as a separate data set.
Data set [10] relates to Candida albicans. Kind of data set: In vitro antifungal activity against Candida albicans (CY1002) in YNBPB medium in rat. Type of data set: functional, organism-based.
The species entered for data set [11] is Rattus norvegicus. Description: Antifungal activity determined in rat infected with Candida albicans CY1002. It is filed as functional.
The target of data set [12] is Peptide N-myristoyltransferase (Candida albicans). Description: In vitro inhibitory activity against candida albicans Nmt (CaNmt) using substrate peptide GLTISKLFR-R-NH2 (0.5 uM) and myristoyl-CoA (0.5 uM).
Data set [13] addresses Peptide N-myristoyltransferase (Aspergillus fumigatus). Kind of data set: In vitro inhibitory activity against aspergillus fumigatus Nmt (AfNmt) using substrate peptide GLTISKLFR-R-NH2 (0.5 uM) and myristoyl-CoA (0.5 uM).
Data set [14] is filed under the species Rattus norvegicus. Kind of data set: Antifungal activity determined in rat infected with Candida albicans CY1002. Type of data set: functional.

One may read the AUC as concentration integrated over time. Low readings indicate low exposure, high ones high exposure. The term half-life denotes the time in which the quantity being followed falls by half. The IC50 is the concentration that inhibits the measured activity by half. As for `Cc1c(C(=O)c2nc3ccccc3n2C(C)C)oc2cccc(OCCCNCc3cccnc3)c12`, the AUC in [1] came out at 810 ng·h/mL. This compound showed a half-life in [2] of 51.6 min. Moreover, the IC50 in the data set on Candida albicans [3] amounted to 2700 nM; in the data set with Candida albicans [4] it was 19 nM; in data set [5], 99000 nM; in data set [6], 1.3 nM; in data set [7], 480 nM.

In turn, `Cc1csc(C(=O)c2oc3cccc(OCCCNCc4cccnc4)c3c2C)n1` displayed an AUC in data set [1] of 470 ng·h/mL. In addition, in data set [2], the half-life is 20.4 min. For the same compound, the half-inhibitory concentration (IC50) came to 740 nM in the data set on Candida albicans [3]; 140 nM with Candida albicans [4]; 130000 nM in data set [5]; 2 nM in [6]; 18000 nM in data set [7].

`Cc1c(C(=O)c2nc3ccccc3n2C)oc2cccc(OCCCNCc3cccnc3)c12` showed an area under the curve (AUC) in data set [1] of 450 ng·h/mL. Also, the half-life in data set [2] is 35.4 min. For the same compound, the 50% inhibitory concentration (IC50) with Candida albicans [3] came out at 1200 nM; with Candida albicans [4] it was 35 nM; in data set [5] it was 94000 nM; in data set [6] it was 0.4 nM; in [7], 13000 nM.

For `Cc1c(Cc2ccccn2)oc2cccc(OCCCNCc3cccnc3)c12`, the IC50 in [8] came out at 1900 nM.

By ED50 is commonly meant the midpoint of the dose-response relation. High values mean a need for a large dose, low ones an effect at a small dose. `Cc1c(COc2ccc(F)c(F)c2F)oc2cccc(OCCCNCc3cccnc3)c12`: the half-life in [2] is 120 min. Moreover, the ED50 in the data set on Mus musculus turned out to be 7.1 mg/kg.

Regarding `Cc1c(C(=O)c2cccnc2)oc2cccc(OCCCNCc3cccnc3)c12`, in data set [8], the 50% inhibitory concentration (IC50) stood at 62 nM.

Consider `Cc1c(C(=O)c2ccco2)oc2cccc(OCCCNCc3cccnc3)c12`, for which the half-maximal inhibitory concentration (IC50) was 25000 nM in the data set on Candida albicans [3]; 4600 nM in the data set with Candida albicans [4]; 280000 nM in data set [5]; 1400 nM in data set [6]; 150000 nM in data set [7].

With `Cc1c(C(=O)c2nccs2)oc2cccc(OCCCNCc3cccnc3)c12`, the IC50 in the data set on Candida albicans [3] came to 8300 nM; in the data set with Candida albicans [4], 540 nM; in [5], 25000 nM; in [6], 91 nM; in data set [7], 63000 nM.

`Cc1c(C(=O)c2ccccn2)oc2cccc(OCCCNCc3cccnc3)c12` returned an area under the curve (AUC) in data set [1] of 410 ng·h/mL. In data set [2], this compound had a half-life of 32.4 min. Also, the IC50 in the data set on Candida albicans [3] worked out at 470 nM; in the data set on Candida albicans [4], 65 nM; in data set [5], 340000 nM; in [9] it was 3.5 nM; in data set [7] it was 42000 nM.

In turn, `OC(Cn1cncn1)(Cn1cncn1)c1ccc(F)cc1F` [FLUCONAZOLE] gave an AUC in data set [1] of 19600 ng·h/mL. The compound also showed a half-life in [2] of 240 min.

In turn, `Cc1c(C(=O)c2nccn2C)oc2cccc(OCCCNCc3cccnc3)c12` gave an AUC in data set [1] of 530 ng·h/mL. The half-life in data set [2] was 27 min. The IC50 in the data set on Candida albicans [3] is 3000 nM; with Candida albicans [4], 120 nM.

Take `Cc1c(C(=O)c2ccccc2)oc2cccc(OCCCNCc3cccnc3)c12`: the half-maximal inhibitory concentration (IC50) in data set [8] amounted to 1200 nM.

`Cc1c(C(=O)c2ncccc2C(F)(F)F)oc2cccc(OCCCNCc3cccnc3)c12` registered an area under the curve (AUC) in data set [1] of 590 ng·h/mL. In data set [2], this compound gave a half-life of 33.6 min. In addition, the 50% inhibitory concentration (IC50) with Candida albicans [3] is 5100 nM; in the data set with Candida albicans [4] it was 340 nM; in data set [5] it was more than 430000 nM; in data set [6], 43 nM; in data set [7] it was 11000 nM.

Compound `Cc1c(C(O)c2ccccn2)oc2cccc(OCCCNCc3cccnc3)c12` (stereo not given) yielded an IC50 in [8] of 47 nM.

`Cc1ccc(C(=O)c2oc3cccc(OCCCNCc4cccnc4)c3c2C)nc1` showed an AUC in data set [1] of 440 ng·h/mL. The compound further gave a half-life in data set [2] of 34.8 min. Also, the half-inhibitory concentration (IC50) is 82 nM with Candida albicans [3]; 36 nM with Candida albicans [10]; more than 480000 nM in data set [5]; 0.39 nM in data set [12]; 4100 nM in [13]. In addition, in the data set filed under Rattus norvegicus [11], it took a dose of 15 mg/kg to reach the 50% effect level (ED50).

As to `C=CCn1c(C(=O)c2oc3cccc(OCCCNCc4cccnc4)c3c2C)nc2ccccc21`, the AUC in data set [1] is 570 ng·h/mL. The compound also gave a half-life in [2] of 48 min. Further, the IC50 in the data set on Candida albicans [3] is 420 nM; with Candida albicans [4], 48 nM; in data set [5] it was 85000 nM; in data set [6] it was 0.58 nM; in data set [7], 5100 nM. This compound registered an ED50 in the data set filed under Rattus norvegicus [14] of 8.7 mg/kg.

The compound `Cc1nc(C(=O)c2oc3cccc(OCCCNCc4cccnc4)c3c2C)sc1C` gave an exposure (AUC) in data set [1] of 320 ng·h/mL. This compound had a half-life in data set [2] of 39 min. Besides, the 50% inhibitory concentration (IC50) in the data set with Candida albicans [3] turned out to be 190 nM; in the data set on Candida albicans [4], 39 nM; in data set [5], 83000 nM; in [6], 0.71 nM; in data set [7] it was 4300 nM.
